In patent US11802120B2, “Fused cyclic urea derivatives as CRHR2 antagonist” (RaQualia Pharma Inc., priority 2018, dated 2023):

Molecular target: T1, human CRHR2-alpha (Homo sapiens, UniProt Q13324)
T1 sequence (Q13324 1-411): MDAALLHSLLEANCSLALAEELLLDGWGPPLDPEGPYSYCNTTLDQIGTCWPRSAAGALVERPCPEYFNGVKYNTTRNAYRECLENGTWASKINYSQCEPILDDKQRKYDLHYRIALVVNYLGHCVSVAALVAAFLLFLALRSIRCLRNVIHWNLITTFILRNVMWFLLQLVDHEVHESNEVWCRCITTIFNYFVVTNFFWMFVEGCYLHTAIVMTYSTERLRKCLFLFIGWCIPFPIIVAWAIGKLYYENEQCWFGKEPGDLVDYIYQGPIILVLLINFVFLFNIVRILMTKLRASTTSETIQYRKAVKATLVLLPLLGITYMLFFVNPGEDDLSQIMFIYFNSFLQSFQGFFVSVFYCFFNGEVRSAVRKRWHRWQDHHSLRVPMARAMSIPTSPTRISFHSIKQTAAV
Assay: cAMP functional assay for human CRHR2 (LANCE Ultra cAMP, TR-FRET)
Format: cell-based
Settings: CHO-K1 cells expressing human CRHR2-alpha, agonist human urocortin2 at EC80, cAMP; read-out: IC50 against CRHR2
Procedure, shortened: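 CHO-K1 stable lines; 4,000 cells/well; compound 30 min, 25° C; EC80 agonist (human urocortin2 → CRHR2, CRF → CRHR1) 30 min, 25° C; buffer HBSS/0.1% BSA/0.5 mM IBMX/5 mM Hepes pH 7.4; Eu-cAMP tracer + ULight antibody 60 min; TR-FRET read; IC50 from % inhibition curves.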

IC50 [nM] | Structure (SMILES)
< 300 | Cc1ncc(Cl)cc1C(=O)N[C@H]1CC[C@H](Cn2c(=O)n(-c3ccccc3Cl)c3cccnc32)CC1 [Example 256, 5-chloro-N-((1r,4r)-4-((1-(2-chlorophenyl)-2-oxo-1H-imidazo[4,5-b]pyridin-3(2H)-yl)methyl)cyclohexyl)-2-methylnicotinamide]
< 300 | Cc1ncc(Cl)cc1C(=O)N[C@H]1CC[C@H](Cn2c(=O)n(-c3ccc(-c4ccnn4C)cc3)c3ccccc32)CC1 [Example 446, 5-chloro-2-methyl-N-((1r,4r)-4-((3-(4-(1-methyl-1H-pyrazol-5-yl)phenyl)-2-oxo-2,3-dihydro-1H-benzo[d]imidazol-1-yl)methyl)cyclo-hexyl)nicotinamide]
< 300 | Cc1ncc(Cl)cc1C(=O)N[C@H]1CC[C@H](Cn2c(=O)n(-c3cncc(-c4ccn(C)n4)c3)c3ccccc32)CC1 [Example 652, 5-chloro-2-methyl-N-((1r,4r)-4-((3-(5-(1-methyl-1H-pyrazol-3-yl)pyridin-3-yl)-2-oxo-2,3-dihydro-1H-benzo[d]imidazol-1-yl)methyl)cyclohexyl)nicotinamide]
< 300 | Cc1ncc(Cl)cc1C(=O)N[C@H]1CC[C@H](Cn2c(=O)n(-c3ccc(C(=O)Nc4cncnc4)nc3)c3ccccc32)CC1 [Example 178, 5-(3-(((1r,4r)-4-(5-chloro-2-methylnicotinamido)cyclo-hexyl)methyl)-2-oxo-2,3-dihydro-1H-benzo[d]imidazol-1-yl)-N-(pyrimidin-5-yl) picolinamide]
< 300 | COCCN(C)c1ccc(-n2c(=O)n(C[C@H]3CC[C@H](NC(=O)c4cc(Cl)cnc4C)CC3)c3ccccc32)cn1 [Example 53, 5-chloro-N-((1r,4r)-4-((3-(6-((2-methoxyethyl)(methyl)amino)pyridin-3-yl)-2-oxo-2,3-dihydro-1H-benzo[d]imidazol-1-yl)methyl)cyclohexyl)-2-methylnicotinamide]
< 300 | Cc1ncc(Cl)cc1C(=O)N[C@H]1CC[C@H](Cn2c(=O)n(-c3ccc4c(C(=O)N(C)C)noc4c3)c3ccccc32)CC1 [Example 245, 6-(3-(((1r,4r)-4-(5-chloro-2-methylnicotinamido)cyclohexyl)methyl)-2-oxo-2,3-dihydro-1H-benzol[d]imidazol-1-yl)-N,N-dimethylbenzo[d]isoxazole-3-carboxamide]
< 300 | Cc1ncc(Cl)cc1C(=O)N[C@H]1CC[C@H](Cn2c(=O)n(-c3cnc4c(cnn4CCO)c3)c3ccccc32)CC1 [Example 253, 5-chloro-N-((1r,4r)-4-((3-(1-(2-hydroxyethyl)-1H-pyrazolo[3,4-b]pyridin-5-yl)-2-oxo-2,3-dihydro-1H-benzo[d]imidazol-1-yl)methyl)cyclohexyl)-2-methylnicotinamide]
< 300 | Cc1ncc(Cl)cc1C(=O)N[C@H]1CC[C@H](Cn2c(=O)n(-c3cncc4ccccc34)c3ccccc32)CC1 [Example 338, 5-chloro-N-((1r,4r)-4-((3-(isoquinolin-4-yl)-2-oxo-2,3-dihydro-1H-benzo[d]imidazol-1-yl)methyl)cyclo-hexyl)-2-methylnicotinamide]
< 300 | O=C(N[C@H]1CC[C@H](Cn2c(=O)n(-c3ccc4ncccc4c3)c3ccccc32)CC1)c1cc(Cl)cnc1C(F)(F)F [Example 351, 5-chloro-N-((1r,4r)-4-((2-oxo-3-(quinolin-6-yl)-2,3-dihydro-1H-benzo[d]imidazol-1-yl)methyl)cyclo-hexyl)-2-(trifluoromethyl) nicotinamide]
< 300 | Cc1ncc(Cl)cc1C(=O)N[C@H]1CC[C@H](Cn2c(=O)n(-c3ccc(C(=O)Nc4cccnn4)nc3)c3ccccc32)CC1 [Example 175, 5-(3-(((1r,4r)-4-(5-chloro-2-methylnicotinamido)cyclo-hexyl)methyl)-2-oxo-2,3-dihydro-1H-benzo[d]imidazol-1-yl)-N-(pyridazin-3-yl) picolinamide]

The next lines start with the compound.

Structure (SMILES) | IC50 [nM]
Cc1ccc(-n2c(=O)n(C[C@H]3CC[C@H](NC(=O)c4cc(Cl)cnc4C)CC3)c3ccc(F)cc32)cn1 [Example 122, 5-chloro-N-((1r,4r)-4-((5-fluoro-3-(6-methylpyridin-3-yl)-2-oxo-2,3-dihydro-1H-benzo[d]imidazol-1-yl)methyl)cyclo-hexyl)-2-methylnicotinamide] | < 300
Cc1ncc(Cl)cc1C(=O)N[C@H]1CC[C@H](Cn2c(=O)n(-c3ccc4c(c3)nnn4CCO)c3ccccc32)CC1 [Example 276, 5-chloro-N-((1r,4r)-4-((3-(1-(2-hydroxyethyl)-1H-benzo[d][1,2,3]triazol-5-yl)-2-oxo-2,3-dihydro-1H-benzo[d]imidazol-1-yl)methyl)cyclohexyl)-2-methylnicotinamide] | < 300
Cc1n[nH]c2ccc(-n3c(=O)n(C[C@H]4CC[C@H](NC(=O)c5cc(Cl)cnc5C(F)F)CC4)c4cccnc43)cc12 [Example 576, 5-chloro-2-(difluoromethyl)-N-((1r,4r)-4-((3-(3-methyl-1H-indazol-5-yl)-2-oxo-2,3-dihydro-1H-imidazo[4,5-b]pyridin-1-yl)methyl)cyclo-hexyl)nicotinamide] | < 300
Cc1ccc(-n2c(=O)n(C[C@H]3CC[C@H](NC(=O)c4cc(Cl)cnc4C)CC3)c3cc(F)ccc32)cn1 [Example 123, 5-chloro-N-((1r,4r)-4-((6-fluoro-3-(6-methylpyridin-3-yl)-2-oxo-2,3-dihydro-1H-benzo[d]imidazol-1-yl)methyl)cyclo-hexyl)-2-methylnicotinamide] | < 300
Cc1ccc(-n2c(=O)n(C[C@H]3CC[C@H](NC(=O)c4cc(Cl)cnc4C(F)(F)F)CC3)c3ccccc32)cn1 [Example 265, 5-chloro-N-((1r,4r)-4-((3-(6-methylpyridin-3-yl)-2-oxo-2,3-dihydro-1H-benzo [d]imidazol-1-yl)methyl)cyclohexyl)-2-(trifluoro-methyl)nicotinamide] | < 300
O=C(N[C@H]1CC[C@H](Cn2c(=O)n(-c3ccc4ncccc4c3)c3cccnc32)CC1)c1cc(Cl)cnc1C(F)F [Example 361, 5-chloro-2-(difluoromethyl)-N-((1r,4r)-4-((2-oxo-1-(quinolin-6-yl)-1H-imidazo[4,5-b]pyridin-3(2H)-yl)methyl)cyclohexyl) nicotinamide] | < 300
O=C(N[C@H]1CC[C@H](Cn2c(=O)n(-c3cc(F)ccc3Cl)c3cnccc32)CC1)c1cc(Cl)cnc1C(F)F [Example 718, 5-chloro-N-((1r,4r)-4-((3-(2-chloro-5-fluorophenyl)-2-oxo-2,3-dihydro-1H-imidazo[4,5-c]pyridin-1-yl)methyl)cyclo-hexyl)-2-(difluoromethyl) nicotinamide] | < 300
COc1ccc(-n2c(=O)n(C[C@H]3CC[C@H](NC(=O)c4cc(Cl)ccc4C)CC3)c3ccccc32)cn1 [Example 223, 5-chloro-N-((1r,4r)-4-((3-(6-methoxypyridin-3-yl)-2-oxo-2,3-dihydro-1H-benzo[d]imidazol-1-yl)methyl)cyclo-hexyl)-2-methylbenzamide] | < 300
Cn1ccnc1-c1ccc(-n2c(=O)n(C[C@H]3CC[C@H](NC(=O)c4cc(Cl)cnc4C(F)F)CC3)c3ccccc32)cc1 [Example 567, 5-chloro-2-(difluoromethyl)-N-((1r,4r)-4-((3-(4-(1-methyl-1H-imidazol-2-yl)phenyl)-2-oxo-2,3-dihydro-1H-benzo[d]imidazol-1-yl)methyl)cyclo-hexyl)nicotinamide] | < 300
CNC(=O)c1ccc(-n2c(=O)n(C[C@H]3CC[C@H](NC(=O)c4cc(C(F)(F)F)ccc4C)CC3)c3ccccc32)cn1 [Example 532, N-methyl-5-(3-(((1r,4r)-4-(2-methyl-5-(trifluoromethyl)benzamido)cyclohexyl)methyl)-2-oxo-2,3-dihydro-1H-benzo[d]imidazol-1-yl) picolinamide] | < 300
CNC(=O)c1ccc(-n2c(=O)n(C[C@H]3CC[C@H](NC(=O)c4cc(C(F)(F)F)cnc4C)CC3)c3ccccc32)cn1 [Example 491, N-methyl-5-(3-(((1r,4r)-4-(2-methyl-5-(trifluoromethyl)nicotinamido)cyclohexyl)methyl)-2-oxo-2,3-dihydro-1H-benzo[d]imidazol-1-yl) picolinamide] | < 300
CNc1ccc(-n2c(=O)n(C[C@H]3CC[C@H](NC(=O)c4cc(Cl)cnc4C)CC3)c3c(F)cccc32)cn1 [Example 668, 5-chloro-N-((1r,4r)-4-((7-fluoro-3-(6-(methylamino)pyridin-3-yl)-2-oxo-2,3-dihydro-1H-benzo[d]imidazol-1-yl)methyl)cyclo-hexyl)-2-methylnicotinamide] | < 300
Cc1c[nH]c2ncc(-n3c(=O)n(C[C@H]4CC[C@H](NC(=O)c5cc(Cl)cnc5C(F)F)CC4)c4ccccc43)cc12 [Example 456, 5-chloro-2-(difluoromethyl)-N-((1r,4r)-4-((3-(3-methyl-1H-pyrrolo[2,3-b]pyridin-5-yl)-2-oxo-2,3-dihydro-1H-benzo[d]imidazol-1-yl)methyl)cyclohexyl)nicotinamide] | < 300
O=C(N[C@H]1CC[C@H](Cn2c(=O)n(-c3ccc(N4CCNC4=O)nc3)c3ccccc32)CC1)c1cc(Cl)cnc1C(F)F [Example 523, 5-chloro-2-(difluoromethyl)-N-((1r,4r)-4-((2-oxo-3-(6-(2-oxoimidazolidin-1-yl)pyridin-3-yl)-2,3-dihydro-1H-benzo[d]imidazol-1-yl)methyl)cyclohexyl)nicotinamide] | < 300
